Results from patent publication US20130072899A1, “Pharmaceutical Formulations for Iontophoretic Delivery of Gallium” (Nitric BloTherapeutics, Inc., priority 2008, published 2013).
Values joined by “and” are separate entries in the source; they are usually repeats but may differ in a detail not shown here. Equal values may be shown once. Read-outs that look alike come from different tables or passages of the source.

Legend:
[1] = Chemical stability of Ga in different 50 mM buffers (HPLC gallium recovery); type: physicochemical
Protocol: The chemical stability of Ga in different 50 mM buffers was assessed including TRIS (pH 7.0), pyrrolidine (pH 11.3), citric acid (pH 5.0), borate (pH 8.0), formic acid (pH 2.5), phosphate (pH 7.3) and HEPES (pH 7.2). Three standard solutions of Ga in each buffer was assessed by HPLC analysis using the method described in Example 1 at four time points 0, 24, 48 and 100 h. Performance was measured by percentage gallium recovery according to the following formula: […]

[2] = Gallium permeation through full thickness human skin, Franz cells (effect of concentration and iontophoresis duration); type: in vitro ADME; details: for Amount of Ga detected in receiver after 70 h / Steady state Ga flux: nitrate hydrate; for increase in gallium permeation compared to passive cells: 16.7% w/v, 70 h
Protocol: Human full thickness skin was stored in the same fashion as the epidermal sheet (Example 3), and a similar Franz cell assembly technique was adopted. The effect of concentration was investigated by applying 16.7, 1.5 and 0.15 % w/v gallium solutions in pH 5.0 citric acid buffer to the donor compartment (0.8 mL). Ten minutes of 400 μA iontophoresis was applied to all of the cells and 0.5 mL samples were removed after 0, 24, 28, 42, 65 and 70 h and replaced with receiver fluid. The gallium in the samples was assayed using the LC ion-exchange method. […] Samples of 0.5 mL were removed for LC ion-exchange assay after 0, 24, 28, 42, 52 and 70 h and replaced with receiver fluid. […] Gallium solutions containing 2.4, 1.6, 0.79, 0.395 and 0.1975 mg of gallium in 20 μL of water were applied to the stratum corneum of the skin samples using a positive displacement pipette (Eppendorf, Cambridge, UK). The samples were then left for 24 h to allow the gallium to permeate the skin. The skin samples were then finely sliced using scissors, chilled and homogenised for five minutes using a T10 Ultra-Turax homogeniser (IKA works, Staufen, Germany) using 30 second pulses. The scalpel, scissors, forceps and homogeniser blades were washed through using 10 mL of PDCA mobile phase concentrate as the extractant. The PDCA concentrate (pH 4.2) was freshly made every week by weighing approximately 5.8 g PDCA, 18.5 g potassium hydroxide, 4.9 g potassium sulphate and 17.0 g of formic acid into a 1000 mL volumetric and making up to volume with DiH2O. The skin-PDCA concentrate homogenate was allowed to mix for a further 24 h before being filtered using 0.45 μm, 30 mm cellulose acetate syringe filters (Orange Scientific, Braine l'Alleud, Belgium). The gallium in the remaining solution was assayed using the LC ion-exchange method. The binding affinity was calculated by subtracting the amount of gallium recovered by the extraction from the amount applied to the skin, in order to gain the amount of gallium still bound to skin in the homogenate. This figure was then divided by the mass of the skin sample to calculate the amount of gallium bound per gram of skin.

[3] = Infinite dose mass balance study, gallium recovery from human skin; details: for Ga mass detected per skin surface area: nitrate hydrate
Protocol: An infinite dose mass balance study was performed using full thickness human skin. Small Franz cells were set up as previously described and the mass and thickness of skin section recorded. […] Cells were then treated with either […] iontophoresis or received no iontophoresis (n=6 for each). […] The skin samples were removed and reweighed.
(Cells dismantled after 0 and 60 h post iontophoresis).

[4] = Gallium permeated through human cadaver skin, receptor analysis; type: in vitro ADME; details: any of the conditions tested
Protocol: Anodal and cathodal iontophoresis (0.3 mA/cm^2 for 15 min) were carried out using full thickness human cadaver skin in Franz diffusion cells. Ga nitrate solutions (0.15% in 0.05M citrate buffer, or a saturated solution of 16.6% in 0.1M/1M citrate buffer) at different pH conditions (2 to 8) were evaluated.

[5] = system: collagen synthesis; details: cited from earlier work
[6] = 0.15% w/v, iontophoresis 10 min, 400 μA, listed as Ga
[7] = 1.5% w/v, iontophoresis 10 min, 400 μA, listed as Ga
[8] = 16.67% w/v, iontophoresis 0 min (passive), listed as Ga
[9] = 16.67% w/v, iontophoresis 0 min (passive)
[10] = 16.67% w/v, iontophoresis 10 min, 400 μA, listed as Ga
[11] = 16.67% w/v, iontophoresis 10 min, 400 μA, listed as gallium
[12] = 16.67% w/v, iontophoresis 60 min, 400 μA, listed as Ga
[13] = 16.67% w/v, iontophoresis 60 min, 400 μA
[14] = Ionto (400 μA, 60 min) 0 h, 1.5% w/v
[15] = Ionto (400 μA, 60 min) 60 h, 1.5% w/v

## O=[N+]([O-])[O-].O=[N+]([O-])[O-].O=[N+]([O-])[O-].[Ga+3] [gallium nitrate, Gallium (III) nitrate hydrate]
[1]; 0.25 mg/ml Ga in pyrrolidine buffer, P<0.05, ANOVA
  Ga loss after 100 h: significant Ga loss
[1]; Borate (pH 8.0) 50 mM, listed as Ga, nitrate hydrate
  [Ga] mg/ml recovered: no peaks observed
[1]; Citric acid (pH 5.0) 50 mM, target conc. 0.13 mg/ml
  [Ga] mg/ml recovered: 0.15 mg/mL
[1]; Citric acid (pH 5.0) 50 mM, target conc. 0.25 mg/ml
  [Ga] mg/ml recovered: 0.28 mg/mL
[1]; Citric acid (pH 5.0) 50 mM, target conc. 0.5 mg/ml
  [Ga] mg/ml recovered: 0.54 mg/mL
[1]; Formic acid (pH 2.5) 50 mM, target conc. 0.13 mg/ml
  [Ga] mg/ml recovered: 0.16 mg/mL
[1]; Formic acid (pH 2.5) 50 mM, target conc. 0.25 mg/ml
  [Ga] mg/ml recovered: 0.29 mg/mL
[1]; Formic acid (pH 2.5) 50 mM, target conc. 0.5 mg/ml
  [Ga] mg/ml recovered: 0.55 mg/mL
[1]; HEPES (pH 7.2) 50 mM, target conc. 0.13 mg/ml
  [Ga] mg/ml recovered: 0.10 mg/mL
[1]; HEPES (pH 7.2) 50 mM, target conc. 0.25 mg/ml
  [Ga] mg/ml recovered: 0.06 mg/mL
[1]; HEPES (pH 7.2) 50 mM, target conc. 0.5 mg/ml
  [Ga] mg/ml recovered: 0.13 mg/mL
[1]; Phosphate (pH 7.3) 50 mM, target conc. 0.13 mg/ml
  [Ga] mg/ml recovered: 0.04 mg/mL
[1]; Phosphate (pH 7.3) 50 mM, target conc. 0.25 mg/ml
  [Ga] mg/ml recovered: 0.11 mg/mL
[1]; Phosphate (pH 7.3) 50 mM, target conc. 0.5 mg/ml
  [Ga] mg/ml recovered: 0.30 mg/mL
[1]; Pyrrolidine (pH 11.3) 50 mM, target conc. 0.13 mg/ml
  [Ga] mg/ml recovered: 0.13 mg/mL
[1]; Pyrrolidine (pH 11.3) 50 mM, target conc. 0.25 mg/ml
  [Ga] mg/ml recovered: 0.25 mg/mL
[1]; Pyrrolidine (pH 11.3) 50 mM, target conc. 0.5 mg/ml
  [Ga] mg/ml recovered: 0.49 mg/mL
[1]; TRIS (pH 7.0) 50 mM, target conc. 0.13 mg/ml
  [Ga] mg/ml recovered: 0.01 mg/mL
[1]; TRIS (pH 7.0) 50 mM, target conc. 0.25 mg/ml
  [Ga] mg/ml recovered: 0.13 mg/mL
[1]; TRIS (pH 7.0) 50 mM, target conc. 0.5 mg/ml
  [Ga] mg/ml recovered: 0.49 mg/mL
[1]; citric or formic acid buffer, P>0.05, ANOVA
  Ga loss between 0 and 100 h: No significant Ga loss
[2]; [6]
  Amount of Ga detected in receiver after 70 h: 0.0028 ± 0.006 mg/cm^2
  Steady state Ga flux: 0.008 μg/cm^2/h and 0.008 ± 0.005 μg/cm^2/h
[2]; 0.15% w/v, iontophoresis 10 min, 400 μA
  Amount of Ga detected in receiver after 70 h: 0.0028±0.006 mg/cm^2
[2]; 1.5% w/v vs 16.67% w/v Ga, 10 min iontophoresis
  reduction of amount of drug permeating the skin: 10.6%
[2]; [7]
  Amount of Ga detected in receiver after 70 h: 0.044 ± 0.034 mg/cm^2
  Steady state Ga flux: 0.9 μg/cm^2/h and 0.900 ± 0.695 μg/cm^2/h
[2]; 1.5% w/v, iontophoresis 10 min, 400 μA
  Amount of Ga detected in receiver after 70 h: 0.0438±0.034 mg/cm^2
[2]; [8]
  Amount of Ga detected in receiver after 70 h: 0.004 ± 0.011 mg/cm^2
  Steady state Ga flux: 0.009 ± 0.003 μg/cm^2/h
[2]; [9]
  Amount of Ga detected in receiver after 70 h: 0.004±0.011 mg/cm^2
  Steady state Ga flux: 0.009±0.003 μg/cm^2/h
[2]; [10]
  Amount of Ga detected in receiver after 70 h: 0.049 ± 0.013 mg/cm^2
  Steady state Ga flux: 0.9 μg/cm^2/h and 0.900 ± 0.238 μg/cm^2/h
[2]; [11]
  Amount of Ga detected in receiver after 70 h: 0.049±0.013 mg/cm^2
  Steady state Ga flux: 0.9±0.238 μg/cm^2/h
[2]; 16.67% w/v, iontophoresis 10 min, 400 μA
  Amount of Ga detected in receiver after 70 h: 0.049±0.013 mg/cm^2
[2]; [12]
  Amount of Ga detected in receiver after 70 h: 0.063 ± 0.022 mg/cm^2
  Steady state Ga flux: 1.300 ± 0.450 μg/cm^2/h
[2]; [13]
  Amount of Ga detected in receiver after 70 h: 0.063±0.022 mg/cm^2
  Steady state Ga flux: 1.3±0.450 μg/cm^2/h
[2]; 10 min iontophoresis
  increase in gallium permeation compared to passive cells: 1125%
[2]; 60 min iontophoresis
  increase in gallium permeation compared to passive cells: 1475%
[3]; [14]
  Ga mass detected, full thickness human skin: 0.0788 ± 0.043 mg
  Ga mass detected, skin corrected for binding: 0.127 ± 0.043 mg
  Ga mass detected per skin surface area: 0.200±0.069 mg/cm^2
[3]; Ionto (400 μA, 60 min) 0 h, 1.5% w/v, listed as Ga
  Ga mass detected per skin surface area: 0.200 ± 0.069 mg/cm^2
[3]; [15]
  Ga mass detected, full thickness human skin: 0.328 ± 0.371 mg
  Ga mass detected, skin corrected for binding: 0.391 ± 0.373 mg
  Ga mass detected per skin surface area: 0.617±0.059 mg/cm^2
[3]; Ionto (400 μA, 60 min) 60 h, 1.5% w/v, listed as Ga
  Ga mass detected per skin surface area: 0.617 ± 0.059 mg/cm^2
[3]; Passive 0 h, 1.5% w/v
  Ga mass detected, full thickness human skin: 0.07 ± 0.036 mg
  Ga mass detected, skin corrected for binding: 0.111 ± 0.035 mg
  Ga mass detected per skin surface area: 0.178±0.058 mg/cm^2
[3]; Passive 0 h, 1.5% w/v, listed as Ga
  Ga mass detected per skin surface area: 0.178 ± 0.058 mg/cm^2
[3]; Passive 60 h, 1.5% w/v
  Ga mass detected, full thickness human skin: 0.0745 ± 0.108 mg
  Ga mass detected, skin corrected for binding: 0.137 ± 0.109 mg
  Ga mass detected per skin surface area: 0.221±0.176 mg/cm^2
[3]; Passive 60 h, 1.5% w/v, listed as Ga
  Ga mass detected per skin surface area: 0.221 ± 0.176 mg/cm^2
[3]; after 60 hours, 1.5% w/v
  increase in skin gallium content, iontophoretic vs passive: three fold
[3]; both passive and iontophoretic cells
  total gallium in the skin vs levels in the receiver compartment: ten-fold higher
[3]; immediately after iontophoresis
  increase in detected gallium level in the skin, iontophoresis vs passive: 12%
[3]; receiver compartment and recovery from the skin
  increase in gallium flux with 60 min iontophoresis compared to passive: approximate three-fold increase
[4]
  Ga in the receptor: not detected
0.15% in 0.05M citrate buffer, pH 2, cathodal 0.3 mA/cm^2 15 min
  gallium skin deposition: 277.90 ± 51.24 ng/mg
0.15% in 0.05M citrate buffer, pH 3, cathodal 0.3 mA/cm^2 15 min
  gallium skin deposition: 113.16 ± 17.65 ng/mg
0.15% in 0.05M citrate buffer, pH 4, cathodal 0.3 mA/cm^2 15 min
  gallium skin deposition: 60.5 ± 21.11 ng/mg
0.15% in 0.05M citrate buffer, pH 6, cathodal 0.3 mA/cm^2 15 min
  gallium skin deposition: 51.16 ± 6.65 ng/mg
16.6% gallium nitrate in 1M citrate at pH 8, 0.3 mA/cm^2 for 15 min
  maximum skin deposition expressed as concentration: 0.78 mg/mL
16.6% in 0.1 M citrate buffer, pH 2, anodal
  gallium skin deposition: 91.74 ± 13.09 ng/mg
16.6% in 0.1 M citrate buffer, pH 4, anodal
  gallium skin deposition: 74.42 ± 22.31 ng/mg
16.6% in 0.1 M citrate buffer, pH 6, anodal
  gallium skin deposition: 62.19 ± 23.76 ng/mg
16.6% in 0.1 M citrate buffer, pH 6, cathodal
  gallium skin deposition: 99.62 ± 36.44 ng/mg
16.6% in 1M citrate buffer, pH 6, cathodal
  gallium skin deposition: 163.72 ± 36.72 ng/mg
16.6% in 1M citrate buffer, pH 7, cathodal
  gallium skin deposition: 250.49 ± 39.76 ng/mg
16.6% in 1M citrate buffer, pH 8, cathodal, nitrate hydrate
  gallium skin deposition: 329.52 ± 36.10 ng/mg and 330 ng/mg
[5]; nitrate hydrate
  maximum effective dose: 100 uM and 0.0256 mg/ml
[5]; per mg dry weight tissue, Goncalves et al., 2002, Bockman patent
  effective range per mg tissue: 1 to 1000 ng/mg
[5]; published, Bockman et al. 1993, Goncalves et al. 2002
  effective (desired) concentration range: 0.25 to 100 µM
